Test results from patent US20050054006A1, “Combinatorial fluorescent library based on the styryl scaffold” (New York University, priority 2003, published 2005).

Assay: Fluorescence excitation/emission of the styryl dye library compounds
Type: physicochemical
Conditions: EX/EM peak no. 1

| SMILES | EM(nm) | EX(nm) |
| --- | --- | --- |
| COc1ccc(C=Cc2cc[n+](C)c3ccccc23)cc1O.[I-] [Compound G15] | 560 nm | 420-460 nm |
| C[n+]1ccc(/C=C/c2ccc(O)cc2)c2ccccc21.[I-] [Compound G16] | 560 nm | 430 nm |
| C[n+]1ccc(/C=C/c2ccc3c(c2)Cc2ccccc2-3)c2ccccc21.[I-] [Compound G28] | 620 nm | 450 nm |
| C[n+]1ccc(C=Cc2ccccc2F)c2ccccc21.[I-] [Compound G29] | 560 nm | 450 nm |
| CN(C)c1ccc(/C=C/C=C/c2cc[n+](C)c3ccccc23)cc1.[I-] [Compound G37] | 670 nm | 530 nm |
| C[n+]1ccc(/C=C/c2ccc3c(c2)OCO3)c2ccccc21.[I-] [Compound G39] | 590 nm | 430 nm |
| C[n+]1ccc(C=Cc2ccc3ccc4cccc5ccc2c3c45)c2ccccc21.[I-] [Compound G41] | 660 nm | 500 nm |
| C[n+]1c(/C=C/c2ccccc2)ccc2ccccc21.[I-] [Compound H2] | 640 nm | 480(weak) nm |
| C[n+]1c(C=Cc2cccc(Br)c2)ccc2ccccc21.[I-] [Compound H4] | 640 nm | 530 nm |
| C[n+]1c(C=Cc2ccc(Br)cc2)ccc2ccccc21.[I-] [Compound H5] | 640 nm | 480 nm |
| C[n+]1c(C=Cc2ccc(Cl)cc2)ccc2ccccc21.[I-] [Compound H6] | 640 nm | 530 nm |
| Cc1ccccc1C=Cc1ccc2ccccc2[n+]1C.[I-] [Compound H7] | 650 nm | 420 nm |
| Cc1ccc(/C=C/c2ccc3ccccc3[n+]2C)cc1.[I-] [Compound H8] | 650 nm | 530 nm |
| COc1ccc(C=Cc2ccc3ccccc3[n+]2C)cc1OC.[I-] [Compound H11] | 570 nm | 460 nm |
| COc1cc(C=Cc2ccc3ccccc3[n+]2C)cc(OC)c1OC.[I-] [Compound H13] | 590 nm | 420 nm |
| C[n+]1c(C=Cc2c3ccccc3cc3ccccc23)ccc2ccccc21.[I-] [Compound H34] | 650 nm | 460 nm |
| C[n+]1c(C=Cc2ccc3ccc4cccc5ccc2c3c45)ccc2ccccc21.[I-] [Compound H41] | 640 nm | 480 nm |
| COc1ccc2c(ccc(C=Cc3ccc(Br)cc3)[n+]2C)c1.[I-] [Compound I5] | 650 nm | 420 nm |
| COc1ccc2c(ccc(C=Cc3ccc(OC)c(OC)c3)[n+]2C)c1.[I-] [Compound I11] | 560 nm | 430 nm |
| COc1ccc2c(ccc(C=Cc3cc(OC)c(OC)c(OC)c3)[n+]2C)c1.[I-] [Compound I13] | 580 nm | 430 nm |
| COc1ccc2c(ccc(C=Cc3ccc(OC)c(O)c3)[n+]2C)c1.[I-] [Compound I15] | 520 nm | 360 nm |
| COc1ccc2c(ccc(C=Cc3ccc([N+](=O)[O-])cc3)[n+]2C)c1.[I-] [Compound I22] | 510 nm | 360 nm |
| COc1ccc2c(ccc(C=Cc3c(OC)ccc4ccccc34)[n+]2C)c1.[I-] [Compound I23] | 550 nm | 340-360 nm |
| COc1ccc2c(ccc(C=Cc3ccccc3F)[n+]2C)c1.[I-] [Compound I29] | 580 nm |  |

| SMILES | EM(nm) | EX(nm) |
| --- | --- | --- |
| COc1ccc2c(ccc(C=Cc3c4ccccc4cc4ccccc34)[n+]2C)c1.[I-] [Compound I34] | 650 nm | 490 nm |
| COc1ccc2c(ccc(C=CC=Cc3ccccc3[N+](=O)[O-])[n+]2C)c1.[I-] [Compound I36] | 530 nm | 360 nm |
| COc1ccc2c(ccc(C=Cc3ccc4c(c3)OCO4)[n+]2C)c1.[I-] [Compound I39] | 500 nm | 380 nm |
| COc1ccc2c(ccc(C=Cc3ccc4ccc5cccc6ccc3c4c56)[n+]2C)c1.[I-] [Compound I41] | 630 nm | 480 nm |
| COc1ccc(C=Cc2cc[n+](C)c(-c3cc(C)ccn3)c2)cc1OC.[I-] [Compound J11] | 560 nm | 420 nm |
| COc1cc(C=Cc2cc[n+](C)c(-c3cc(C)ccn3)c2)cc(OC)c1OC.[I-] [Compound J13] | 590 nm |  |
| COc1ccc(C=Cc2cc[n+](C)c(-c3cc(C)ccn3)c2)c2ccccc12.[I-] [Compound J14] | 580 nm | 420-480 nm |
| COc1ccc2ccccc2c1C=Cc1cc[n+](C)c(-c2cc(C)ccn2)c1.[I-] [Compound J23] | 570 nm | 430-460 nm |
| Cc1ccnc(-c2cc(/C=C/c3c[nH]c4ccccc34)cc[n+]2C)c1.[I-] [Compound J24] | 560 nm | 420-500 nm |
| Cc1ccnc(-c2cc(C=Cc3ccc(N(C)C)c4ccccc34)cc[n+]2C)c1.[I-] [Compound J27] | 670 nm | 460 nm |
| Cc1ccnc(-c2cc(C=Cc3c4ccccc4cc4ccccc34)cc[n+]2C)c1.[I-] [Compound J34] | 630 nm | 430 nm |
| Cc1ccnc(-c2cc(C=CC=Cc3ccccc3[N+](=O)[O-])cc[n+]2C)c1.[I-] [Compound J36] | 540 nm | 420 nm |
| Cc1ccnc(-c2cc(C=CC=Cc3ccc(N(C)C)cc3)cc[n+]2C)c1.[I-] [Compound J37] | 730 nm | 550(broad) nm |
| Cc1ccnc(-c2cc(/C=C/c3ccccn3)cc[n+]2C)c1.[I-] [Compound J40] | 580 nm | 400 nm |
| Cc1ccnc(-c2cc(C=Cc3ccc4ccc5cccc6ccc3c4c56)cc[n+]2C)c1.[I-] [Compound J41] | 630 nm | 460 nm |
| Cc1cccc(C=Cc2ccc(OCc3ccccc3)c(OCc3ccccc3)c2)[n+]1C.[I-] [Compound L12] | 520 nm | 390 nm |
| COc1cc(C=Cc2cccc(C)[n+]2C)cc(OC)c1OC.[I-] [Compound L13] | 540 nm | 380 nm |
| COc1ccc(C=Cc2cccc(C)[n+]2C)c2ccccc12.[I-] [Compound L14] | 570 nm | 420 (broad) nm |
| COc1ccc(C=Cc2cccc(C)[n+]2C)cc1O.[I-] [Compound L15] | 570 nm | 390 nm |
| Cc1cccc(C=Cc2ccc(O)cc2)[n+]1C.[I-] [Compound L16] | 500 nm | 390 nm |
| Cc1cccc(/C=C/c2ccc(-c3ccccc3)cc2)[n+]1C.[I-] [Compound L17] | 500 nm | 420 nm |
| Cc1cccc(/C=C/c2c[nH]c3ccccc23)[n+]1C.[I-] [Compound L24] | 500 nm | 430 nm |
| Cc1cccc(C=Cc2ccc(N(C)C)c3ccccc23)[n+]1C.[I-] [Compound L27] | 620 nm | 430 nm |
| Cc1cccc(C=C/C=C/c2ccc(N(C)C)cc2)[n+]1C.[I-] [Compound L37] | 680 nm | 480 nm |
